Reference: the supplement of paper PMC10307832

Columns and labels:
BI-D1870 = compound: CC(C)CCN1c2nc(Nc3cc(F)c(O)c(F)c3)ncc2N(C)C(=O)C1C [BI-D1870]; assay: relative viability (nuclei count vs DMSO), 5 days (fraction); higher = more cells survive
Outline: (§1)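 A plate was accepted only when its control CV was below 25% and the cells had doubled at least once. Viability is defined from nuclear counts as treated wells divided by vehicle wells, with the median taken across plates. That median covers lung cancer cell lines grown in 1536-well plates, dosed by pinning at five √10-spaced library-drug concentrations, and counted in MetaXpress from 4× Hoechst images after 5 days.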

Zebularine = compound: O=c1ncccn1[C@@H]1O[C@H](CO)[C@@H](O)[C@H]1O [Zebularine]; assay: as above
Outline: as §1

Cell Line: 201T
- relative viability (BI-D1870; 0.04 µM): 0.989
- relative viability (BI-D1870; 0.1265 µM): 0.962
- relative viability (BI-D1870; 0.4 µM): 0.975
- relative viability (BI-D1870; 1.265 µM): 0.985
- relative viability (BI-D1870; 4 µM): 0.959
- relative viability (Zebularine; 1 µM): 1.08
- relative viability (Zebularine; 3.162 µM): 0.986
- relative viability (Zebularine; 10 µM): 0.776
- relative viability (Zebularine; 31.62 µM): 1
- relative viability (Zebularine; 100 µM): 0.947

Cell Line: A549
- relative viability (BI-D1870; 0.04 µM): 1.06
- relative viability (BI-D1870; 0.1265 µM): 0.908
- relative viability (BI-D1870; 0.4 µM): 0.975
- relative viability (BI-D1870; 1.265 µM): 1.04
- relative viability (BI-D1870; 4 µM): 0.848
- relative viability (Zebularine; 1 µM): 1.08
- relative viability (Zebularine; 3.162 µM): 0.913
- relative viability (Zebularine; 10 µM): 0.519
- relative viability (Zebularine; 31.62 µM): 0.75
- relative viability (Zebularine; 100 µM): 0.155

Cell Line: A-427
- relative viability (BI-D1870; 0.04 µM): 1.18
- relative viability (BI-D1870; 0.1265 µM): 0.945
- relative viability (BI-D1870; 0.4 µM): 0.997
- relative viability (BI-D1870; 1.265 µM): 1.04
- relative viability (BI-D1870; 4 µM): 0.801
- relative viability (Zebularine; 1 µM): 1.11
- relative viability (Zebularine; 3.162 µM): 0.898
- relative viability (Zebularine; 10 µM): 0.65
- relative viability (Zebularine; 31.62 µM): 0.55
- relative viability (Zebularine; 100 µM): 0.267

Cell Line: ABC-1
- relative viability (BI-D1870; 0.04 µM): 0.949
- relative viability (BI-D1870; 0.1265 µM): 0.887
- relative viability (BI-D1870; 0.4 µM): 0.92
- relative viability (BI-D1870; 1.265 µM): 1.01
- relative viability (BI-D1870; 4 µM): 0.761
- relative viability (Zebularine; 1 µM): 0.922
- relative viability (Zebularine; 3.162 µM): 0.724
- relative viability (Zebularine; 10 µM): 0.687
- relative viability (Zebularine; 31.62 µM): 0.641
- relative viability (Zebularine; 100 µM): 0.494

Cell Line: BEN
- relative viability (BI-D1870; 0.04 µM): 1.03
- relative viability (BI-D1870; 0.1265 µM): 0.915
- relative viability (BI-D1870; 0.4 µM): 1.05
- relative viability (BI-D1870; 1.265 µM): 1.07
- relative viability (BI-D1870; 4 µM): 0.845
- relative viability (Zebularine; 1 µM): 0.913
- relative viability (Zebularine; 3.162 µM): 0.788
- relative viability (Zebularine; 10 µM): 0.45
- relative viability (Zebularine; 31.62 µM): 0.378
- relative viability (Zebularine; 100 µM): 0.333

Cell Line: CAL-12T
- relative viability (BI-D1870; 0.04 µM): 1.14
- relative viability (BI-D1870; 0.1265 µM): 0.87
- relative viability (BI-D1870; 0.4 µM): 0.946
- relative viability (BI-D1870; 1.265 µM): 0.97
- relative viability (BI-D1870; 4 µM): 0.682
- relative viability (Zebularine; 1 µM): 1.03
- relative viability (Zebularine; 3.162 µM): 0.871
- relative viability (Zebularine; 10 µM): 0.793
- relative viability (Zebularine; 31.62 µM): 0.993
- relative viability (Zebularine; 100 µM): 0.671

Cell Line: COR-L23
- relative viability (BI-D1870; 0.04 µM): 1.12
- relative viability (BI-D1870; 0.1265 µM): 0.945
- relative viability (BI-D1870; 0.4 µM): 1.09
- relative viability (BI-D1870; 1.265 µM): 1.13
- relative viability (BI-D1870; 4 µM): 0.83
- relative viability (Zebularine; 1 µM): 1.07
- relative viability (Zebularine; 3.162 µM): 1.05
- relative viability (Zebularine; 10 µM): 0.484
- relative viability (Zebularine; 31.62 µM): 0.504
- relative viability (Zebularine; 100 µM): 0.177

Cell Line: COR-L 105
- relative viability (BI-D1870; 0.04 µM): 0.895
- relative viability (BI-D1870; 0.1265 µM): 0.836
- relative viability (BI-D1870; 0.4 µM): 0.949
- relative viability (BI-D1870; 1.265 µM): 0.939
- relative viability (BI-D1870; 4 µM): 0.888
- relative viability (Zebularine; 1 µM): 1.03
- relative viability (Zebularine; 3.162 µM): 0.952
- relative viability (Zebularine; 10 µM): 0.831
- relative viability (Zebularine; 31.62 µM): 1.15
- relative viability (Zebularine; 100 µM): 0.873

Cell Line: Calu-6
- relative viability (BI-D1870; 0.04 µM): 1.11
- relative viability (BI-D1870; 0.1265 µM): 0.865
- relative viability (BI-D1870; 0.4 µM): 0.998
- relative viability (BI-D1870; 1.265 µM): 0.904
- relative viability (BI-D1870; 4 µM): 0.676
- relative viability (Zebularine; 1 µM): 1.18
- relative viability (Zebularine; 3.162 µM): 0.99
- relative viability (Zebularine; 10 µM): 0.747
- relative viability (Zebularine; 31.62 µM): 0.7
- relative viability (Zebularine; 100 µM): 0.246

Cell Line: ChaGo-K-1
- relative viability (BI-D1870; 0.04 µM): 1.05
- relative viability (BI-D1870; 0.1265 µM): 0.991
- relative viability (BI-D1870; 0.4 µM): 0.9
- relative viability (BI-D1870; 1.265 µM): 0.962
- relative viability (BI-D1870; 4 µM): 0.868
- relative viability (Zebularine; 1 µM): 1.03
- relative viability (Zebularine; 3.162 µM): 0.97
- relative viability (Zebularine; 10 µM): 0.525
- relative viability (Zebularine; 31.62 µM): 0.317
- relative viability (Zebularine; 100 µM): 0.244

Cell Line: EBC-1
- relative viability (BI-D1870; 0.04 µM): 0.995
- relative viability (BI-D1870; 0.1265 µM): 0.889
- relative viability (BI-D1870; 0.4 µM): 0.839
- relative viability (BI-D1870; 1.265 µM): 0.654
- relative viability (BI-D1870; 4 µM): 0.361
- relative viability (Zebularine; 1 µM): 1.1
- relative viability (Zebularine; 3.162 µM): 0.811
- relative viability (Zebularine; 10 µM): 0.842
- relative viability (Zebularine; 31.62 µM): 1.11
- relative viability (Zebularine; 100 µM): 0.974

Cell Line: EKVX
- relative viability (BI-D1870; 0.04 µM): 1.06
- relative viability (BI-D1870; 0.1265 µM): 0.94
- relative viability (BI-D1870; 0.4 µM): 0.889
- relative viability (BI-D1870; 1.265 µM): 1.11
- relative viability (BI-D1870; 4 µM): 0.931
- relative viability (Zebularine; 1 µM): 1.04
- relative viability (Zebularine; 3.162 µM): 0.961
- relative viability (Zebularine; 31.62 µM): 1.03
- relative viability (Zebularine; 100 µM): 0.985

Cell Line: EMC-BAC-2
- relative viability (BI-D1870; 0.04 µM): 1.1
- relative viability (BI-D1870; 0.1265 µM): 1.01
- relative viability (BI-D1870; 0.4 µM): 0.891
- relative viability (BI-D1870; 1.265 µM): 1.01
- relative viability (BI-D1870; 4 µM): 0.904
- relative viability (Zebularine; 1 µM): 1.07
- relative viability (Zebularine; 3.162 µM): 0.994
- relative viability (Zebularine; 10 µM): 0.775
- relative viability (Zebularine; 31.62 µM): 0.981
- relative viability (Zebularine; 100 µM): 1.06

Cell Line: EPLC-272H
- relative viability (BI-D1870; 0.04 µM): 1.12
- relative viability (BI-D1870; 0.1265 µM): 0.802
- relative viability (BI-D1870; 0.4 µM): 0.926
- relative viability (BI-D1870; 1.265 µM): 0.821
- relative viability (BI-D1870; 4 µM): 0.627
- relative viability (Zebularine; 1 µM): 1.14
- relative viability (Zebularine; 3.162 µM): 0.577
- relative viability (Zebularine; 10 µM): 0.558
- relative viability (Zebularine; 31.62 µM): 0.811
- relative viability (Zebularine; 100 µM): 0.724

Cell Line: H3255
- relative viability (BI-D1870; 0.04 µM): 1.01
- relative viability (BI-D1870; 0.1265 µM): 0.97
- relative viability (BI-D1870; 0.4 µM): 1.04
- relative viability (BI-D1870; 1.265 µM): 1.09
- relative viability (BI-D1870; 4 µM): 0.994
- relative viability (Zebularine; 1 µM): 1.01
- relative viability (Zebularine; 3.162 µM): 0.948
- relative viability (Zebularine; 10 µM): 0.782
- relative viability (Zebularine; 31.62 µM): 0.998
- relative viability (Zebularine; 100 µM): 1.05

Cell Line: HARA
- relative viability (BI-D1870; 0.04 µM): 1.03
- relative viability (BI-D1870; 0.1265 µM): 0.905
- relative viability (BI-D1870; 0.4 µM): 0.932
- relative viability (BI-D1870; 1.265 µM): 1.27
- relative viability (BI-D1870; 4 µM): 0.804
- relative viability (Zebularine; 1 µM): 1.09
- relative viability (Zebularine; 3.162 µM): 1.13
- relative viability (Zebularine; 31.62 µM): 1.06
- relative viability (Zebularine; 100 µM): 0.897

Cell Line: HCC-15
- relative viability (BI-D1870; 0.04 µM): 1.02
- relative viability (BI-D1870; 0.1265 µM): 0.935
- relative viability (BI-D1870; 0.4 µM): 0.93
- relative viability (BI-D1870; 1.265 µM): 1.02
- relative viability (BI-D1870; 4 µM): 0.725
- relative viability (Zebularine; 1 µM): 1.11
- relative viability (Zebularine; 3.162 µM): 0.974
- relative viability (Zebularine; 10 µM): 0.752
- relative viability (Zebularine; 31.62 µM): 0.906
- relative viability (Zebularine; 100 µM): 0.497
